# According to US20070238725A1, “Therapeutic combinations for the treatment or prevention of psychotic disorders” (Wyeth, priority 2006, published 2007):
# Like-named read-outs stand apart in the source and are kept apart here.
# Tests used:
# stereotypy = assay: Apomorphine-induced stereotypy scored in the climbing test; type: in vivo, mice
# Experimental: (§1) Mice were acclimated to the climbing cages for at least 1 hour and then dosed with either the vehicle or a dose of haloperidol or clozapine followed by a dose of either vehicle or a dose of Compound 1. Thirty minutes after dosing all mice received 1 mg/kg, s.c. apomorphine and returned to the climbing cages. Five minutes after apomorphine the mice were observed and scored for climbing and stereotypy every 5 minutes for the 30 minute test session.
# [1] = test system: conditioned avoidance responding; assay: Conditioned avoidance responding; type: in vivo; settings: rats
# Experimental: (Compound 2, “cpd 2”) to exemplify, the present Example describes an experiment to determine the effect of co-administration of haloperidol (0.54 mg/kg, i.p. 30′ pretreatment) or clozapine (5.4 mg/kg, i.p., 30′ pretreatment) and compound 1 (0.54 mg/kg, i.p., 30′ pretreatment) or compound 2 (1 mg/kg, i.p. 30′ pretreatment) on conditioned avoidance responding.
# Male rats had been trained to a stable criterion performance of 90% avoidance responding and had been used in previous drug studies. The dosing plan was a within subject pseudo random design so that all rats received all treatments over several weeks. On test days in experiments 1 and 2 the rats were dosed with vehicle, Compound 1, haloperidol or clozapine or a combination of Compound 1/haloperidol or Compound 1/clozapine. On test days in experiments 3 and 4 the rats were dosed with vehicle, Compound 2, haloperidol or clozapine or a combination of Compound 2/haloperidol or Compound 2/clozapine. Conditioned avoidance testing commenced 30 minutes after treatment and the rats received 50 trials and the number of avoidance, escape and no response trials was recorded.
# [2] = test system: apomorphine-induced climbing; assay: Apomorphine-induced climbing in mice; type: in vivo; settings: for block of apomorphine-induced climbing: versus either compound alone; for ED50: Mus musculus, read-out: ED50 for apomorphine block; for dose for increased efficacy with co-administration: co-administration with haloperidol
# Experimental: (Compound 2, “cpd 2”) to exemplify, the present Example describes four experiments in which a compound of formula I, was administered in combination with either a typical (exemplified by haloperidol) or atypical (exemplified by clozapine). The combination reduced apomorphine-induced climbing without side effects.
# as §1
# [3] = test system: haloperidol induced catalepsy; assay: Catalepsy (bar test), extra-pyramidal side effect liability; type: in vivo, mice; settings: for dose for increased EPS liability with co-administration: co-administration with haloperidol, mice
# Experimental: (Compound 2, “cpd 2”) to exemplify, the present Example describes an experiment in which a compound of formula I was administered in combination with haloperidol to assess extra-pyramidal side effect liability, as represented by cataleptic behavior. [table] [table] [table] Mice were dosed with either the vehicle or a dose of haloperidol followed by a dose of either vehicle or a dose of Compound 1 or Compound 2. Thirty, 60, 90 and 120 minutes after dosing, the forelegs are draped over a thin horizontal rod 1.75″ high. The number of seconds up to 60 sec for which the mouse remains on the bar is recorded at each test point and presented as the percent of maximum possible response (60 sec).
# [4] = administered individually, 0.54 mg/kg i.p., 30 min pretreatment
# [5] = sc, 0.5 h, compound alone, mice, apomorphine 1 mg/kg s.c. 30 min after dosing
structure (smiles),measurement,setting,value
c1cc2c3c(c1)[C@H]1CCC[C@H]1N3CCNC2 [Compound 1],stereotypy relative to 0.3 haloperidol alone,"stereotypy; 0.3 mg/kg haloperidol with all doses of Compound 1 (1.7, 5.4, 17 mg/kg)",decreased stereotypy
same,decrease in stereotypy,stereotypy; 17 mg/kg Compound 1 and 0.17 mg/kg haloperidol combined treatment group,< 10%
same,decrease in stereotypy,stereotypy; 17 mg/kg Compound 1 and 5.4 mg/kg clozapine combined treatment,~13%
same,decrease in avoidance responding,"[1]; Compound 1 0.54 mg/kg co-administered with clozapine 5.4 mg/kg, i.p.",> 70%
same,effect on number of no response trials,[1]; Compound 1 0.54 mg/kg co-administered with clozapine 5.4 mg/kg,no adverse effects
same,decrease in avoidance responding,"[1]; Compound 1 0.54 mg/kg co-administered with haloperidol 0.54 mg/kg, i.p.",> 70%
same,effect on number of no response trials,[1]; Compound 1 0.54 mg/kg co-administered with haloperidol 0.54 mg/kg,no adverse effects
same,decrease in avoidance responding,[1]; [4],~10%
same,block of apomorphine-induced climbing,[2]; Compound 1 5.4 & 17 mg/kg co-administered with clozapine 3 & 5.4 mg/kg,greater block
same,block of apomorphine-induced climbing,[2]; Compound 1 5.4 & 17 mg/kg co-administered with haloperidol 0.17 & 0.3 mg/kg,greater block
same,ED50,[2]; [5],17 mg/kg
same,dose for increased efficacy with co-administration,[2]; mice,5.4 mg/kg
same,ED50 for apomorphine block,"[2]; compound alone, mice, apomorphine 1 mg/kg s.c. 30 min after dosing",15.89 mg/kg
same,"catalepsy, percent of maximum catalepsy (60 sec on bar)","[3]; Compound 1 17 mg/kg with 0.17 and 0.3 mg/kg haloperidol, moderate increase, 30-120 min after dosing",up to 30%
same,dose for increased EPS liability with co-administration,[3],≥ 17 mg/kg
same,potentiation of haloperidol-induced catalepsy,"[3]; lower doses of Compound 1 (1.7, 5.4 mg/kg) with 0.17 and 0.3 mg/kg haloperidol",failed to potentiate catalepsy
c1cc2c3c(c1)[C@H]1CCC[C@H]1CN3CCNC2 [Compound 2],decrease in stereotypy,stereotypy; 30 mg/kg Compound 2 and 0.17 mg/kg haloperidol combined treatment relative to haloperidol alone,~30%
same,decrease in stereotypy,stereotypy; 30 mg/kg Compound 2 and 5.4 mg/kg clozapine combined treatment,~20%
same,decrease in avoidance responding,"[1]; Compound 2 1 mg/kg co-administered with clozapine 5.4 mg/kg, i.p.",> 60%
same,effect on number of no response trials,[1]; Compound 2 1 mg/kg co-administered with clozapine 5.4 mg/kg,no adverse effects
same,decrease in avoidance responding,"[1]; Compound 2 1 mg/kg co-administered with haloperidol 0.54 mg/kg, i.p.",> 50%
same,effect on number of no response trials,[1]; Compound 2 1 mg/kg co-administered with haloperidol 0.54 mg/kg,no adverse effects
same,block of apomorphine-induced climbing,"[2]; Compound 2 3, 10 & 30 mg/kg co-administered with clozapine 3 & 5.4 mg/kg",greater block
same,block of apomorphine-induced climbing,"[2]; Compound 2 3, 10 & 30 mg/kg co-administered with haloperidol 0.1 & 0.17 mg/kg",greater block
same,ED50,"[2]; co-administered with 0.1 mg/kg of haloperidol, mice",2.4 mg/kg
same,ED50,"[2]; co-administered with 0.17 mg/kg of haloperidol, mice",4.1 mg/kg
same,ED50,"[2]; compound alone, Experiment 4, mice",27.1 mg/kg
same,ED50,[2]; [5],27.1 mg/kg
same,dose for increased efficacy with co-administration,[2]; mice,3 mg/kg
same,potentiation of haloperidol-induced catalepsy,[3]; Compound 2 10 mg/kg with haloperidol 0.1 and 0.17 mg/kg,failed to potentiate
same,dose for increased EPS liability with co-administration,[3],> 10 mg/kg
"CN1CCN(C2=Nc3cc(Cl)ccc3Nc3ccccc32)CC1 [clozapine, 8-chloro-11-(4-methyl-1-piperazinyl)-5H-dibenzo[b,e]-[1,4]-diazepine, reference compound]",decrease in avoidance responding,"[1]; administered individually, 5.4 mg/kg i.p., 30 min pretreatment",~10%
"O=C(CCCN1CCC(O)(c2ccc(Cl)cc2)CC1)c1ccc(F)cc1 [haloperidol, 4-[4-(4-chlorophenyl)-4-hydroxy-1-piperidinyl]-1-(4-fluoro-phenyl)-1-butanone, reference compound]",decrease in avoidance responding,[1]; [4],~10%
